Test results reported in PubChem BioAssay (NCI).
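Assay format: 96-well plates, 48-hour exposure. TGI denotes the concentration required for complete inhibition of growth.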 Where a SMILES comes first, the peptide text is derived from it. [ ]: non-standard residue; d: D form. The star is where a group is joined. ξ: configuration not given here. NMeF = CN[CH](Cc1ccccc1)C(=O)O; ξNMe2Val = CC(C)C(C(=O)*)N(C)C; NMeV = CN[CH](C(=O)O)C(C)C; ξNMeV = CNC(C(=O)O)C(C)C; Boc = CC(C)(C)OC(=O)*; OBn = c1ccc(CO*)cc1; OtBu = CC(C)(C)O*

Columns and labels:
Test in all cases: growth of human tumour cells (NCI), 48 h
[1] = test system: SF-268 CNS
[2] = test system: SF-539 CNS
[3] = test system: A549 NSCLC
[4] = test system: OVCAR-8 ovarian
[5] = test system: NCI-H460 lung
[6] = test system: NCI-H522 lung
[7] = test system: M14 melanoma
[8] = test system: SW-620 colon
[9] = test system: PC-3 prostate
[10] = test system: T-47D breast

Row | Structure (SMILES) | TGI [1] | TGI [2] | TGI [3] | TGI [4] | TGI [5] | TGI [6] | TGI [7] | TGI [8] | TGI [9] | TGI [10]
1 | CC(C)C(C(=O)N(C)[C@H](C(=O)N1CCC[C@H]1C(=O)N(C)[C@@H](Cc1ccccc1)C(=O)OCc1ccccc1)C(C)C)N(C)C(=O)[C@@H](NC(=O)OC(C)(C)C)C(C)C (stereo partly specified) (Boc-V[ξNMeV][NMeV]P[NMeF]-OBn) | > 31.6 µM | > 31.6 µM | > 31.6 µM | > 31.6 µM | > 31.6 µM | > 100 µM | > 100 µM | > 31.6 µM |  | 
2 | CCOC(=O)c1cc(C)nc2c1c(=O)n(-c1ccccc1)c(=O)n2CCCCN1CCN(c2ncccn2)CC1 | > 100 µM |  | > 100 µM | > 100 µM |  | > 100 µM | > 100 µM | > 100 µM | > 100 µM | > 100 µM
3 | O=C1Nc2ccc(Br)cc2/C1=N/N1C(=O)C(=O)N(C2CCCCC2)C1=S | 30.3 µM | 18.3 µM | 19.2 µM |  | 15.7 µM |  | 14.6 µM | 14.8 µM | 25.9 µM | 9.95 µM
4 | O=C1Nc2ccc(Cl)c(I)c2C1=O | 32.6 µM |  | > 100 µM | 38.1 µM | 39.7 µM | 32 µM | 31.1 µM | 36.9 µM |  | 
5 | O=C(O)c1nn(-c2ccccc2)nc1-c1nn(-c2ccccc2)nc1C(=O)O | > 100 µM | > 100 µM | > 100 µM | > 100 µM | > 100 µM |  | > 100 µM | > 100 µM | > 100 µM | > 100 µM
6 | CC(=O)OCC1OC(N=[N+]=[N-])C(OC(C)=O)C(OC(C)=O)C1OC1OC(COC(C)=O)C(OC(C)=O)C(OC(C)=O)C1OC(C)=O (stereo unspecified) | > 100 µM | > 100 µM | > 100 µM | > 100 µM | > 100 µM | > 100 µM | > 100 µM | > 100 µM |  | 
7 | C(=N\NC1=NCCN1)/c1ccc2ccccc2c1 | 47.6 µM | 39.4 µM | 29.5 µM | 35 µM | 29.5 µM | 29.6 µM |  | 32.6 µM | 28.5 µM | > 100 µM
8 | Cc1[nH]c2nccn2c(=O)c1CCO | > 10 µM | > 10 µM | > 10 µM | > 10 µM | > 10 µM |  | > 10 µM | > 10 µM | > 10 µM | > 10 µM
9 | CN1C(=O)C23CCCC2CC1(c1ccccc1)S3 (stereo unspecified) | > 100 µM | > 100 µM | > 100 µM | > 100 µM |  | > 100 µM | > 100 µM | > 100 µM | > 100 µM | > 100 µM
10 | CSC(C1c2ccccc2N(C)c2[nH]c(=O)n(C)c(=O)c21)S(=O)(=O)c1ccc(C)cc1 (stereo unspecified) | > 100 µM | > 100 µM | > 100 µM | > 100 µM |  | 46.6 µM |  | > 100 µM |  | 
11 | Brc1ccc(-c2cc3c(cc2C2SCCS2)OCO3)cc1 | > 100 µM | 39.1 µM | > 100 µM | > 100 µM | > 100 µM | 40.9 µM | > 100 µM | > 100 µM |  | 
12 | COc1ccc(NC(=O)C(=O)Cc2ccc([N+](=O)[O-])c([N+](=O)[O-])c2CC(=O)C(=O)Nc2ccc(OC)cc2OC)c(OC)c1 | > 100 µM |  | > 100 µM | > 100 µM | > 100 µM | > 100 µM | > 100 µM | > 100 µM |  | 
13 | N#COc1ccc(Oc2ccc(OC#N)cc2)cc1 | > 100 µM | > 100 µM | > 100 µM | > 100 µM | > 100 µM | > 100 µM | > 100 µM |  |  | 
14 | CC(C)C(C(=O)N(C)C(Cc1ccccc1)C(=O)N(C)C(C(=O)N(C)C(C(=O)N1CCCC1C(=O)OC(C)(C)C)C(C)C)C(C)C)N(C)C (stereo unspecified) (ξNMe2Val-[NMeF][NMeV][NMeV]P-OtBu; configuration not given here) | > 100 µM | > 100 µM | > 100 µM | > 100 µM | > 100 µM | 46.5 µM | 51.2 µM | > 100 µM |  | 
15 | COC(=O)c1c2c(cc3c1CC1(Cc4ccccc4C1)C3)CCC2 | > 100 µM | > 100 µM | > 100 µM | > 100 µM | > 100 µM | 35.2 µM |  | 39.7 µM | 48.1 µM | 43.2 µM
16 | CCNC(=S)NNC(=O)c1ccccc1Nc1ccccc1C(=O)NNC(=S)NCC |  |  | > 100 µM | > 100 µM | > 100 µM | > 100 µM | > 100 µM | > 100 µM | > 100 µM | > 100 µM
17 | CNC(=O)CNC(=O)N(C[C@@H]1CCCN1C(=O)[C@H](CC(C)C)NC(=O)OC(C)(C)C)C(C)C | > 100 µM |  | > 100 µM | > 100 µM | > 100 µM | > 100 µM | > 100 µM | > 100 µM | > 100 µM | > 100 µM
18 | COc1cc(S(=O)(=O)Nc2ccc(-c3csc(N4C(=O)CSC4c4ccccc4O)n3)cc2)ccc1Cl (stereo unspecified) | > 100 µM | > 100 µM | > 100 µM | > 100 µM | 52.8 µM | 55.6 µM | > 100 µM | > 100 µM | > 100 µM | 
19 | Cc1nc2ccc(NC3OCC(O)C(O)C3O)cc2c(=O)n1-c1ccccc1 (stereo unspecified) | > 100 µM |  |  | > 100 µM | > 100 µM | > 100 µM |  | > 100 µM | > 100 µM | > 100 µM
20 | CN(C)CCCn1c(Cn2nc3ccccc3n2)nc2cc(C(F)(F)F)ccc21 | > 100 µM |  | > 100 µM | > 100 µM | 89 µM | 31.2 µM | 29 µM | > 100 µM | > 100 µM | 35.1 µM
21 | CC[C@]12C=CCN3CC[C@@]4(c5cc(Br)c(OC)cc5N(C)[C@H]4[C@@](O)(C(=O)NC(Cc4c[nH]c5ccccc45)C(=O)OC)[C@@H]1O)[C@@H]32 (stereo partly specified) | > 100 µM | > 100 µM | > 100 µM | > 100 µM |  | > 100 µM | > 100 µM | > 100 µM | > 100 µM | > 100 µM
22 | CC12CCc3ccccc3C1=NNC(=O)C2 (stereo unspecified) | > 100 µM | > 100 µM | > 100 µM | > 100 µM | > 100 µM | > 100 µM | > 100 µM | > 100 µM |  | 
23 | COc1cccc(CCNc2c(C#N)c3n(c4ccccc4[n+]3C)c3ncccc23)c1 | 38.5 µM | 3.55 µM | 4.04 µM | 3.87 µM | 3.16 µM | 10.3 µM | 3.08 µM |  | 31.4 µM | 14.7 µM
24 | CCCCCCCCCCCC[N+]12CC[N+](C)(CC1)CC2 | 53.3 µM | > 100 µM | > 100 µM | > 100 µM | 26.5 µM | 46 µM | > 100 µM | > 100 µM |  | 
